Tests used:
bax = bax mRNA, semi-quantitative RT-PCR, Jurkat; format: cell-based, human; conditions: increasing concentrations
Description: FIG. 18: Effects of compound 27 on p53, Bax, bcl-2 mRNA levels in Jurkat cells. Expression of human p53, bax-α, bcl-2, was assayed by semi quantitative RT-PCR analysis with GAPDH as internal control. Cells were treated for 24 h with various doses of the compound (0, 50, 100 and 500 nM), then total RNA was extracted and submitted to RT-PCR.
RNA extraction: Total RNA was isolated using the standard TRIzol method (Gibco BRL). Briefly, 3×10^6 cells were treated with different concentrations of the compounds as indicated in the legends to Figures and after harvesting the cell pellet was resuspended in 1 ml of TRIzol with repeated pipetting. The homogenized sample was incubated at RT for 5 min to permit complete dissociation of the nucleoprotein complexes. […] of chloroform was added and the tubes were shaken vigorously for 15 sec by hand and then incubated at RT for 3 mins. The samples were then centrifuged at 10,000 RPM for 15 mins at 4° C. The aqueous phase was transferred to a fresh tube and 500 μl of Isopropyl alcohol was added, followed by incubation at RT for 10 mins. […]
Semi-quantitative reverse transcriptase (RT)-PCR: Changes in gene expression were verified by semi-quantitative RT-PCR using GAPDH as an internal normalization standard. 1 μg of total RNA (quantified by spectrophotometer) was used to reverse transcribe into cDNA. […]

U937 cell line = experiment: Apoptosis by PARP cleavage (FACS), U937; format: cell-based, human; conditions: U937, 100 nM, 24 h
Description: FIG. 19: Effect of compound 27 on the apoptosis in cells with different p53 status. Extent of apoptosis in different cells was measured by staining the cells for PARP cleavage followed by FACS analysis. Cells were treated with 100 nM of the compound for 24 h and the level of apoptosis was seen. Percentage apoptotic populations are represented as the M2 gated population.
PARP Cleavage Assay using Flow Cytometry: Extent of PARP cleavage is determined using polyclonal antibody specifically recognizing the 85 kDa fragment of cleaved PARP (NSB 699 Novus Biologicals) and can be used as a marker for detecting apoptotic cells. Treated cells were fixed with 70% chilled ethanol and permeabilized for 30 min at RT (PBS+0.5% BSA+0.02% NaN3+0.5% saponin) and stained with anti PARP-FITC (10 μl/10^6 cells) for one hour at RT. Cells were washed twice with wash buffer (PBS+1% heat inactivated FBS) and analysed using FACS.

NF-κB [1] = experiment: NF-κB activation assay, HeLa; format: cell-based, human; conditions: 15 μM 3 h, 0.1 nM TNF 30 min
Description: (§1) FIG. 4: Effect of CAMVE on NF-κB activation in different cell lines. A. HeLa, MCF-7, U937, were incubated at 37° C. for 3 h with 15 μM dose of CAMVE and then stimulated with 0.1 nM TNF for 30 min. After these treatments, nuclear extracts were prepared and assayed for NF-κB using BD Transfactor ELISA method. B. RAW 264.7 cells pretreated with indicated doses of CAMVE were stimulated with 100 ng/ml LPS for 30 min and assayed for NF-κB activation.
(§2) Cell pellet was resuspended in lysis buffer (10 mM HEPES, pH 7.9, 1.5 mM MgCl2, 10 mM KCl, 1 mM PMSF, 1 mMDTT, 0.5% NP 40, 0.1 mM EGTA and 0.1 mM EDTA) and allowed to swell on ice for 15 min, followed by centrifugation at 3300×g for 20 min. The cell pellet was resuspended in a volume of lysis buffer equal to the cell pellet volume. The cell suspension was slowly drawn down into a syringe and ejected the content in a single stroke. Disrupted cells were incubated for 15 min on ice, and the disrupted cell suspension was centrifuged at 10,000×g for 20 min at 4° C. […]
(§3) The assay was performed by using wells coated with oligonucleotides having the consensus DNA binding sites for the specific transcription factors. […] Bound transcription factor was detected by a specific Primary Antibody. […] After addition of the substrate, the Absorbance was recorded at 655 nm.

NF-κB [2] = experiment: NF-κB activation assay, U937; format: cell-based, human; conditions: U937, 15 μM 3 h, 0.1 nM TNF 30 min
Description: as §1, §2, §3

NF-κB [3] = experiment: NF-κB activation assay, RAW 264.7; format: cell-based, mouse; conditions: RAW 264.7, 100 ng/ml LPS 30 min
Description: as §1, §2, §3

SMILES	pro-apoptotic bax mRNA levels (bax)	level of apoptosis (PARP cleavage) (U937 cell line)	TNF-induced NF-κB activation (NF-κB [1])	TNF-induced NF-κB activation (NF-κB [2])	LPS induced NF-κB activation (NF-κB [3])
COc1cc([C@@H]2Oc3c(OC)cc(/C=C/C(=O)O)cc3[C@H]2C(=O)O)ccc1O [compound 27, 5-[(E)-2-carboxyvinyl]-2β-(4-hydroxy-3-methoxyphenyl)-7-methoxy-2,3-dihydro-1-benzofuran-3α-carboxylic acid]	increased the pro-apoptotic bax mRNA levels	does not show induction of apoptosis			
COC(=O)c1ccc(OC(=O)/C=C/c2ccc(O)c(O)c2)c(OC)c1 [compound 1, Methyl 4-{[(2E)-3-(3,4-dihydroxyphenyl)prop-2-enoyl]oxy}-3-methoxybenzoate]			blocks TNF-induced NF-κB activation	blocks TNF-induced NF-κB activation	inhibited NF-κB activation in murine cells

From patent US20100168228A1, “NOVEL CHEMOTHERAPEUTIC AGENTS AGAINST INFLAMMATION AND CANCER” (RELIANCE LIFE SCIENCES PVT. LTD., priority 2006, published 2010)
